Patent US11702418B2, “SOS1 inhibitors” (priority 2019, dated 2023)
Counter-ions that a name gives are not always drawn.

target: recombinant human SOS1 polypeptide (amino acids 560-1049) (Homo sapiens (Human), UniProt Q07889); test: biochemical; assay type: binding; details: HTRF displacement, Cy5 labelled tracer, Morrison equation for competitive binding; read-out: Ki, Inhibition of Labeled Tracer Binding to SOS1
Sequence (Q07889 560-1049): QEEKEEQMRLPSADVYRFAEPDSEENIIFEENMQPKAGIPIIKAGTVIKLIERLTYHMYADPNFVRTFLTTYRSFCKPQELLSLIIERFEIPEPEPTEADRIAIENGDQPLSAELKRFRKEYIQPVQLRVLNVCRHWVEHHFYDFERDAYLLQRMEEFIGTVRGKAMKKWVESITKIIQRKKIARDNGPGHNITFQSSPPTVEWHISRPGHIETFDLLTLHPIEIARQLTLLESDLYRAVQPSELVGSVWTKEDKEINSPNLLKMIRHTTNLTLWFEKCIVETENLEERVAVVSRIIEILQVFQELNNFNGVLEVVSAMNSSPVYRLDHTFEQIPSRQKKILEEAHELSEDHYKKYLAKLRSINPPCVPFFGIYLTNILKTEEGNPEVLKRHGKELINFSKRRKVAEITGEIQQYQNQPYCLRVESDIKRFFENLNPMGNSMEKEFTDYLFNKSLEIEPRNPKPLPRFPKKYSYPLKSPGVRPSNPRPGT
Procedure: The ability of a compound of Formula (I) to bind to SOS1 was measured using a HTRF displacement assay. […] After a 1-hour incubation at room temperature, the HTRF signal was measured using Clairostar plate reader (BMG Labtech) according to the manufacturer's instructions. Excitation filter EX-TR was used, and emission 1 was detected at 650-610 nm and emission 2 detected at 620-610 nm. The HTRF ratio was calculated using the formula: [emission 1/emission 2]*10000.
Background signals were calculated from well with a 10 μM inhibitor, known to inhibit 100% at that concentration. The background subtracted signals were converted to % binding relative to DMSO controls. Data were analyzed using XLFIT software (IDBS) using a Morrison equation for competitive binding and Ki's were generated compound of Formula (I).

How did the Ki turn out when `CNCc1cccc([C@@H](C)Nc2nnc(C)c3cc(OC)c(OC)cc23)c1C` [Example 5-3, (R)-6,7-dimethoxy-4-methyl-N-(1-(2-methyl-3-((methylamino)methyl)phenyl)ethyl)phthalazin-1-amine] was run?
The Ki was 390 nM.

How did the Ki turn out when `CNCc1cccc([C@@H](C)Nc2nnc(C)c3ccc(N4CCOCC4)cc23)c1C` [Example 6-8, (R)-4-methyl-N-(1-(2-methyl-3-((methylamino)methyl)phenyl)ethyl)-7-morpholinophthalazin-1-amine] was run?
Its Ki is 39.2 nM.

For `Cc1c(C#N)cccc1[C@@H](C)Nc1nnc(C)c2ccc(N3CCN4CCC[C@@H]4C3)cc12` [Example 10-81, 3-((R)-1-((7-((R)-hexahydropyrrolo[1,2-a]pyrazin-2(1H)-yl)-4-methylphthalazin-1-yl)amino)ethyl)-2-methylbenzonitrile], which Ki is on record?
The Ki was 0.9 nM.

With `Cc1c(C#N)cccc1[C@@H](C)Nc1nnc(C)c2ccc(N3CC4(CCCN4C)C3)cc12` [Example 10-84, (R)-2-methyl-3-(1-((4-methyl-7-(5-methyl-2,5-diazaspiro[3.4]octan-2-yl)phthalazin-1-yl)amino)ethyl)benzonitrile] as the molecule, how does the Ki read?
Its Ki is 2.01 nM.

`Cc1nnc(N[C@H](C)c2cccc(C(F)(F)F)c2F)c2cc(N3CCN4CCOC[C@@H]4C3)ncc12` [Example 12-63] was tested. Which Ki did it give?
Its Ki is 0.83 nM.

How did the Ki turn out when `Cc1nnc(N[C@H](C)c2cccc(C(F)(F)F)c2F)c2cc(N3CCN(C)CC3)ncc12` [Example 12-67] was run?
The Ki was 0.36 nM.

`CCN1CCN(c2cc3c(N[C@H](C)c4cccc(C(F)(F)F)c4F)nnc(C)c3cn2)CC1` [Example 12-68] was tested. Which Ki did it give?
Its Ki is 0.37 nM.

`Cc1c(C#N)cccc1[C@@H](C)Nc1nnc(C)c2cnc(N3CC[C@H](N(C)C)C3)cc12` [Example 12-69] was tested. Which Ki did it give?
Its Ki is 0.93 nM.

With `Cc1c(C#N)cccc1[C@@H](C)Nc1nnc(C)c2cnc(N3CC4(CCOC4)C3)cc12` [Example 12-71] as the molecule, how does the Ki read?
Its Ki is 4.48 nM.

For `Cc1c(C#N)cccc1[C@@H](C)Nc1nnc(C)c2cnc(N3CCN4CCC[C@@H]4C3)cc12` [Example 12-73], which Ki is on record?
Its Ki is 1.67 nM.

Which Ki does the source give for `Cc1nnc(N[C@H](C)c2cccc(F)c2Cl)c2cc(N3CCN4CCOC[C@@H]4C3)ncc12` [Example 12-74] here?
The Ki was 10.5 nM.

Which Ki does the source give for `Cc1nnc(N[C@H](C)c2cccc(F)c2Cl)c2cc(N3CC4CC(C3)O4)ncc12` [Example 12-77] here?
The Ki was 28.5 nM.

With `Cc1c(F)cccc1[C@@H](C)Nc1nnc(C)c2cnc(N3CC(C)(O)C3)cc12` [Example 12-81] as the molecule, how does the Ki read?
Its Ki is 29 nM.

`Cc1c(C#N)cccc1[C@@H](C)Nc1nnc(C)c2cnc(N3CCN4CCCC[C@@H]4C3)cc12` [Example 12-86] was tested. Which Ki did it give?
The Ki was 0.98 nM.

For `Cc1c(C#N)cccc1[C@@H](C)Nc1nnc(C)c2cnc(N3CC(C)(N4CCOCC4)C3)cc12` [Example 12-87], which Ki is on record?
Its Ki is 3.17 nM.

For `Cc1c(C#N)cccc1[C@@H](C)Nc1nnc(C)c2cnc(N3CC4(CCCN4C)C3)cc12` [Example 12-88], which Ki is on record?
Its Ki is 2.03 nM.

For `Cc1c(C#N)cccc1[C@@H](C)Nc1nnc(C)c2cnc(N3C[C@H]4CC[C@@H]3CN4CCO)cc12` [Example 12-89], which Ki is on record?
Its Ki is 0.25 nM.

How did the Ki turn out when `Cc1nnc(N[C@H](C)c2cccc(F)c2F)c2cc(N3CC4CC(C3)O4)ncc12` [Example 12-98] was run?
Its Ki is 19 nM.

Which Ki does the source give for `Cc1nnc(N[C@H](C)c2cccc(C(F)F)c2F)c2cc(N3C[C@H]4C[C@@H]3CO4)ncc12` [Example 12-99] here?
Its Ki is 0.93 nM.

For `Cc1nnc(N[C@H](C)c2cccc(C(F)F)c2F)c2cc(N3CCN4CCOC[C@@H]4C3)ncc12` [Example 12-100], which Ki is on record?
Its Ki is 1.07 nM.

How did the Ki turn out when `CCN1CCN(c2cc3c(N[C@H](C)c4cccc(C(F)F)c4F)nnc(C)c3cn2)CC1` [Example 12-102] was run?
Its Ki is 0.25 nM.

How did the Ki turn out when `Cc1c(C#N)cc(F)cc1[C@@H](C)Nc1nnc(C)c2cnc(N3CC(C)(O)C3)cc12` [Example 12-107] was run?
Its Ki is 35.6 nM.

`Cc1c(C#N)cc(F)cc1[C@@H](C)Nc1nnc(C)c2cnc(N3CC(C)(N(C)C)C3)cc12` [Example 12-108] was tested. Which Ki did it give?
The Ki was 22.1 nM.

With `Cc1c([C@@H](C)Nc2nnc(C)c3cnc(N4C[C@H]5C[C@@H]4CO5)cc23)cc(F)cc1C(F)(F)F` [Example 12-109] as the molecule, how does the Ki read?
Its Ki is 2.61 nM.

`Cc1c([C@@H](C)Nc2nnc(C)c3cnc(N4CC(C)(N(C)C)C4)cc23)cc(F)cc1C(F)(F)F` [Example 12-110] was tested. Which Ki did it give?
The Ki was 3.54 nM.

With `Cc1c([C@@H](C)Nc2nnc(C)c3cnc(N4CC(C)(O)C4)cc23)cc(F)cc1C(F)(F)F` [Example 12-111] as the molecule, how does the Ki read?
The Ki was 8.09 nM.

How did the Ki turn out when `Cc1c([C@@H](C)Nc2nnc(C)c3cnc(N4CCN5CCOC[C@@H]5C4)cc23)cc(F)cc1C(F)(F)F` [Example 12-112] was run?
The Ki was 2.2 nM.

`Cc1c([C@@H](C)Nc2nnc(C)c3cnc(N4CC5CC(C4)O5)cc23)cc(F)cc1C(F)(F)F` [Example 12-113] was tested. Which Ki did it give?
The Ki was 2.62 nM.

For `Cc1nnc(N[C@H](C)c2cc(F)cc(C#N)c2F)c2cc(N3C[C@H]4C[C@@H]3CO4)ncc12` [Example 12-114], which Ki is on record?
The Ki was 69.3 nM.

`Cc1nnc(N[C@H](C)c2cc(F)cc(C#N)c2F)c2cc(N3CCN4CCOC[C@@H]4C3)ncc12` [Example 12-120] was tested. Which Ki did it give?
The Ki was 49.8 nM.

How did the Ki turn out when `Cc1nnc(N[C@H](C)c2cc(F)cc(C#N)c2F)c2cc(N3CC4CC(C3)O4)ncc12` [Example 12-121] was run?
The Ki was 39.2 nM.

With `Cc1nnc(N[C@H](C)c2cc(F)cc(C#N)c2F)c2cc(N3CC(C)(N(C)C)C3)ncc12` [Example 12-122] as the molecule, how does the Ki read?
Its Ki is 170 nM.

Which Ki does the source give for `Cc1nnc(N[C@H](C)c2cc(F)cc(C#N)c2F)c2cc(N3CCC(C)(N(C)C)CC3)ncc12` [Example 12-123] here?
The Ki was 50.4 nM.

Which Ki does the source give for `Cc1c(F)cccc1[C@@H](C)Nc1nnc(C)c2cnc(N3CC4CC(C3)O4)cc12` [Example 12-126] here?
The Ki was 14 nM.

How did the Ki turn out when `Cc1nnc(N[C@H](C)c2cccc(C#N)c2C(F)(F)F)c2cc(N3C[C@H]4C[C@@H]3CO4)ncc12` [Example 12-127] was run?
Its Ki is 6.08 nM.

How did the Ki turn out when `Cc1cccc([C@@H](C)Nc2nnc(C)c3cnc(N4CC5CC(C4)O5)cc23)c1F` [Example 12-134] was run?
The Ki was 7.1 nM.

With `CNCc1nnc(N[C@H](C)c2cccc(C#N)c2C)c2cc(N3C[C@H]4C[C@@H]3CO4)ncc12` [Example 14-3, 3-((R)-1-((7-((1R,4R)-2-oxa-5-azabicyclo[2.2.1]heptan-5-yl)-4-((methylamino)methyl)pyrido[3,4-d]pyridazin-1-yl)amino)ethyl)-2-methylbenzonitrile] as the molecule, how does the Ki read?
Its Ki is 14.5 nM.

How did the Ki turn out when `Cc1nnc(N[C@H](C)c2cc(N)cc(C(F)(F)F)n2)c2cc(N3CC(C)(N(C)C)C3)ncc12` [Example 16-11, (R)-N-(1-(4-amino-6-(trifluoromethyl)pyridin-2-yl)ethyl)-7-(3-(dimethylamino)-3-methylazetidin-1-yl)-4-methylpyrido[3,4-d]pyridazin-1-amine] was run?
The Ki was 108 nM.

Which Ki does the source give for `Cc1nnc(N[C@H](C)c2cc(N)cc(C(F)(F)F)n2)c2cc(N3CCN(C)CC3)ncc12` [Example 16-12, (R)-N-(1-(4-amino-6-(trifluoromethyl)pyridin-2-yl)ethyl)-4-methyl-7-(4-methylpiperazin-1-yl)pyrido[3,4-d]pyridazin-1-amine] here?
The Ki was 9.58 nM.

For `Cc1c(C#N)cccc1[C@@H](C)Nc1nnc(C)c2cc(F)c(N3CCN(C)CC3)cc12` [Example 18-3, (R)-3-(1-((6-fluoro-4-methyl-7-(4-methylpiperazin-1-yl)phthalazin-1-yl)amino)ethyl)-2-methylbenzonitrile], which Ki is on record?
The Ki was 1.37 nM.

same assay, conditions: read-out: Ki, Inhibition of Labeled Tracer Binding to SOS1

With `Cc1c(C#N)cccc1[C@@H](C)Nc1nnc(C)c2ccc(N3CC4(CCOC4)C3)cc12` [Example 10-80, (R)-2-methyl-3-(1-((4-methyl-7-(6-oxa-2-azaspiro[3.4]octan-2-yl)phthalazin-1-yl)amino)ethyl)benzonitrile Hydrochloride salt] as the molecule, how does the Ki read?
Its Ki is 5.75 nM.

Which Ki does the source give for `Cc1c(C#N)cccc1[C@@H](C)Nc1nnc(C)c2ccc(N3CC(C)(N4CCOCC4)C3)cc12` [Example 10-83, (R)-2-methyl-3-(1-((4-methyl-7-(3-methyl-3-morpholinoazetidin-1-yl)phthalazin-1-yl)amino)ethyl)benzonitrile Formate salt] here?
The Ki was 4.54 nM.

system: pERK in MKN1 cells; test: cells; assay type: cell-based; details: Homo sapiens, MKN-1, pERK inhibition, In-Cell Western; MKN1 or H358 cells (Table 24 does not say which); 0.5-1 hour incubation; read-out: IC50

How did the IC50 turn out when `Cc1c([C@@H](C)Nc2nncc3ccc(N4CC(C(=O)N(C)C)C4)cc23)cccc1C(F)(F)F` [Example 1-24, (R)-N,N-dimethyl-1-(4-((1-(2-methyl-3-(trifluoromethyl)phenyl)ethyl)amino)phthalazin-6-yl)azetidine-3-carboxamide] was run?
The IC50 was 25 nM.

How did the IC50 turn out when `Cc1c([C@@H](C)Nc2nncc3ccc(N4CCOCC4C)cc23)cccc1C(F)(F)F` (stereo partly drawn) [Example 1-27, N-((R)-1-(2-methyl-3-(trifluoromethyl)phenyl)ethyl)-7-(3-methylmorpholino)phthalazin-1-amine] was run?
The IC50 was 61 nM.

How did the IC50 turn out when `Cc1c([C@@H](C)Nc2nncc3ccc(N4CCCN(C)CC4)cc23)cccc1C(F)(F)F` [Example 1-29, (R)-7-(4-methyl-1,4-diazepan-1-yl)-N-(1-(2-methyl-3-(trifluoromethyl)phenyl)ethyl)phthalazin-1-amine] was run?
Its IC50 is 71 nM.

Which IC50 does the source give for `Cc1c([C@@H](C)Nc2nncc3ccc(N4CCN(C)C(=O)C4)cc23)cccc1C(F)(F)F` [Example 1-30, (R)-1-methyl-4-(4-((1-(2-methyl-3-(trifluoromethyl)phenyl)ethyl)amino)phthalazin-6-yl)piperazin-2-one] here?
Its IC50 is 79 nM.

With `Cc1c([C@@H](C)Nc2nncc3ccc(N4CC5CCN(C)CC5C4)cc23)cccc1C(F)(F)F` (stereo partly drawn) [Example 1-31, N-((R)-1-(2-methyl-3-(trifluoromethyl)phenyl)ethyl)-7-(5-methyloctahydro-2H-pyrrolo[3,4-c]pyridin-2-yl)phthalazin-1-amine] as the molecule, how does the IC50 read?
Its IC50 is 83 nM.

With `Cc1c([C@@H](C)Nc2nncc3ccc(N4CCC5(CCCN(C)C5)C4)cc23)cccc1C(F)(F)F` (stereo partly drawn) [Example 1-34, N-((R)-1-(2-methyl-3-(trifluoromethyl)phenyl)ethyl)-7-(7-methyl-2,7-diazaspiro[4.5]decan-2-yl)phthalazin-1-amine] as the molecule, how does the IC50 read?
Its IC50 is 119 nM.

same assay, conditions: read-out: IC50

For “4-methyl-N—((R)-1-(5-(2-((methylamino)methyl(phenyl)thiophen-2-yl)ethyl)-7-(((S)-tetrahydrofuran-3-yl)oxy)phthalazin-1-amine [Example 7-1]”, which IC50 is on record?
Its IC50 is 79 nM.
